Measured values from patent US11912683B1 (priority 2023, dated 2024).
In brackets after ≈: the same amount, converted by molar mass.

How the values were obtained:
[1] = system: Mycobacterium tuberculosis H37Rv; assay: Anti-tubercular activity, colorimetric Resazurin Microplate Assay (REMA), H37Rv; format: cell-based; settings: 192 h, read-out: Anti-tubercular activity against Mycobacterium tuberculosis H37Rv (MIC)

Structure (SMILES) | melting point | MIC [1]
CC1=C(C(=O)N2CCCCC2)C(c2ccc(C(F)(F)F)cc2)NC(=S)N1 (stereo not drawn) [DHPM-KN10, (6-Methyl-2-thioxo-4-(4-(trifluoromethyl)phenyl)-1,2,3,4-tetrahydropyrimidin-5-yl)(piperidin-1-yl)methanone] | 172 °C | 128 µg/mL (≈ 334 µM)
CC1=C(C(=O)N2CCCCC2)C(c2ccccc2)NC(=S)N1 (stereo not drawn) [DHPM-KN1, (6-Methyl-4-phenyl-2-thioxo-1,2,3,4-tetrahydropyrimidin-5-yl)(piperidin-1-yl)methanone] | 240 °C | 16 µg/mL (≈ 50.7 µM)
CC1=C(C(=O)N2CCCC2)C(c2ccccc2)NC(=S)N1 (stereo not drawn) [DHPM-KN14, (6-Methyl-4-phenyl-2-thioxo-1,2,3,4-tetrahydropyrimidin-5-yl)(pyrrolidin-1-yl)methanone] | 198 °C | 
COC(=O)C1=C(C)NC(=S)NC1c1ccc(C(F)(F)F)cc1 (stereo not drawn) [DHPM-KN3, Methyl 6-methyl-2-thioxo-4-(4-(trifluoromethyl)phenyl)-1,2,3,4-tetrahydropyrimidine-5-carboxylate] | 190 °C | 
CC1=C(C(=O)N2CCCCC2)C(c2ccc(F)cc2)NC(=S)N1 (stereo not drawn) [DHPM-KN2, (4-(4-Fluorophenyl)-6-methyl-2-thioxo-1,2,3,4-tetrahydropyrimidin-5-yl)(piperidin-1-yl)methanone] | 234 °C | 
COc1ccc(C2NC(=S)NC(C)=C2C(=O)N2CCCCC2)cc1 (stereo not drawn) [DHPM-KN7, (4-(4-Methoxyphenyl)-6-methyl-2-thioxo-1,2,3,4-tetrahydropyrimidin-5-yl)(piperidin-1-yl)methanone] | 124 °C | > 64 µg/mL
CC1=C(C(=O)N2CCCCC2)C(c2ccccc2O)NC(=S)N1 (stereo not drawn) [DHPM-KN12, (4-(2-Hydroxyphenyl)-6-methyl-2-thioxo-1,2,3,4-tetrahydropyrimidin-5-yl)(piperidin-1-yl)methanone] | 223 °C | 
CC1=C(C(=O)N2CCCCC2)C(c2ccc(O)cc2)NC(=S)N1 (stereo not drawn) [DHPM-KN11, (4-(4-Hydroxyphenyl)-6-methyl-2-thioxo-1,2,3,4-tetrahydropyrimidin-5-yl)(piperidin-1-yl)methanone] | 274 °C | 
CC1=C(C(=O)N2CCCCC2)C(c2ccccc2C)NC(=S)N1 (stereo not drawn) [DHPM-KN8, (6-Methyl-2-thioxo-4-(o-tolyl)-1,2,3,4-tetrahydropyrimidin-5-yl)(piperidin-1-yl)methanone] | 260 °C | 128 µg/mL (≈ 389 µM)
CC1=C(C(=O)N2CCCCC2)C(c2ccc(O)c(O)c2)NC(=S)N1 (stereo not drawn) [DHPM-KN13, (4-(3,4-Dihydroxyphenyl)-6-methyl-2-thioxo-1,2,3,4-tetrahydropyrimidin-5-yl)(piperidin-1-yl)methanone] | 173 °C | 
CC1=C(C(=O)N2CCCCC2)C(c2ccc(Cl)cc2)NC(=S)N1 (stereo not drawn) [DHPM-KN9, (4-(4-Chlorophenyl)-6-methyl-2-thioxo-1,2,3,4-tetrahydropyrimidin-5-yl)(piperidin-1-yl)methanone] | 218 °C | 
COC(=O)C1=C(C)NC(=O)NC1c1ccc([N+](=O)[O-])cc1[N+](=O)[O-] (stereo not drawn) [DHPM-KN4, Methyl 4-(2,4-dinitrophenyl)-6-methyl-2-oxo-1,2,3,4-tetrahydropyrimidine-5-carboxylate] | 210 °C | 16 µg/mL (≈ 47.6 µM)
CC1=C(C(=O)N2CCCCC2)C(c2ccc(Br)cc2)NC(=S)N1 (stereo not drawn) [DHPM-KN6, (4-(4-Bromophenyl)-6-methyl-2-thioxo-1,2,3,4-tetrahydropyrimidin-5-yl)(piperidin-1-yl)methanone] | 258 °C | > 64 µg/mL
CC1=C(C(=O)N2CCCCC2)C(c2ccc([N+](=O)[O-])cc2)NC(=S)N1 (stereo not drawn) [DHPM-KN5, (6-Methyl-4-(4-nitrophenyl)-2-thioxo-1,2,3,4-tetrahydropyrimidin-5-yl)(piperidin-1-yl)methanone] | 230 °C | 8 µg/mL (≈ 22.2 µM)
